Reference: article PMC5708365, “Histone lysine methyltransferase structure activity relationships that allow for segregation of G9a inhibition and anti-Plasmodium activity” (MedChemComm, 2017)

target: T1, G9a (Homo sapiens, UniProt Q96KQ7); conditions: SPA, 5 nM G9a, H3 1-25 peptide 0.8 μM, 3H-SAM 8 μM
T1 sequence (Q96KQ7 1-1210): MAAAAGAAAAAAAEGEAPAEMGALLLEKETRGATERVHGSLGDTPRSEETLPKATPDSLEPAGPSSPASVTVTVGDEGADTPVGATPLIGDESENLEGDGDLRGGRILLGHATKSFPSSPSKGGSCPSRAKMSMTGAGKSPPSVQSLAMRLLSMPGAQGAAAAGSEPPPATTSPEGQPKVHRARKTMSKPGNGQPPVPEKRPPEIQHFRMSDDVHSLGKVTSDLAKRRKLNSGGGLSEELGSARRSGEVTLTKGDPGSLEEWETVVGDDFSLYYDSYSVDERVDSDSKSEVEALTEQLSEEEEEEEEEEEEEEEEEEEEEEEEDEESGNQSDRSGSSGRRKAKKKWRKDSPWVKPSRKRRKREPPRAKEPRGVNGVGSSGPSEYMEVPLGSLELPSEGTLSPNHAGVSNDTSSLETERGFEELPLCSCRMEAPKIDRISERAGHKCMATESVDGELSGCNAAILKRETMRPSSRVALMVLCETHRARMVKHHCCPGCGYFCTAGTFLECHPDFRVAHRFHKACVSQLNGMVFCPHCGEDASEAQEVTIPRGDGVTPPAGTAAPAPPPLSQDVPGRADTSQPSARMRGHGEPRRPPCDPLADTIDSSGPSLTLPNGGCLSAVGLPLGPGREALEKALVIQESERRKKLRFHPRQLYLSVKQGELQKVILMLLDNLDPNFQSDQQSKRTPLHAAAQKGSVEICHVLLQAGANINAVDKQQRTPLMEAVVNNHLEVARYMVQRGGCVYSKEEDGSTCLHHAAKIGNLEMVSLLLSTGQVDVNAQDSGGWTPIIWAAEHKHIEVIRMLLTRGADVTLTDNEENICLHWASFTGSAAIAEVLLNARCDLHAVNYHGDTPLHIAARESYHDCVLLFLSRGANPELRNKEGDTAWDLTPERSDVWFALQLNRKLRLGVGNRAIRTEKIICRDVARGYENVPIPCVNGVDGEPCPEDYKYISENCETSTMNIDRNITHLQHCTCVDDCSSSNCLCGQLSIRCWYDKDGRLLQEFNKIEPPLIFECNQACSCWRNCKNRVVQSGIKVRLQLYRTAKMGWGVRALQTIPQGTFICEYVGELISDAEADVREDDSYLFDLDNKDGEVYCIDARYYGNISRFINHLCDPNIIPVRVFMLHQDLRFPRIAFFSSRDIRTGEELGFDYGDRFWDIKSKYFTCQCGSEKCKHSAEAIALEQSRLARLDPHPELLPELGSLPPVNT

With `COc1cc2nc(N3CC(C)CC(C)C3)nc(NC3CCN(Cc4ccccc4)CC3)c2cc1OC` (stereo not drawn) [compound 14] the “G9a IC50” value was “inactive against G9a”.
For `COc1cc2c(NC3CCN(Cc4ccccc4)CC3)nc(N3CCCCC3)nc2cc1OCc1ccccc1` [compound 62], the “G9a IC50” value was “virtually no G9a inhibition”.
With `COc1cc2c(NC3CCN(Cc4ccccc4)CC3)nc(N3CCN(C)CC3)nc2cc1OCc1ccccc1` [compound 61] the “G9a IC50” value was “virtually no G9a inhibition”.

same assay, conditions: read-out: G9a IC50; SPA, 5 nM G9a, H3 1-25 peptide 0.8 μM, 3H-SAM 8 μM

`COc1cc2nc(N3CCCCC3)nc(NC3CCN(Cc4cccc(C)c4)CC3)c2cc1OC` [compound 25] and `COc1cc2nc(N3CCCCC3)nc(NC3CCN(Cc4cccc(F)c4)CC3)c2cc1OC` [compound 29] are within 1.5-fold of each other in IC50: 869 nM for the first, about 1000 nM for the second.

Going from `COc1cc2c(NC3CCN(Cc4ccccc4)CC3)nc(N3CCN(C)CC3)nc2cc1OCCCCSC` [compound 84] to `COc1cc2c(NC3CCN(Cc4ccccc4)CC3)nc(N3CCN(C)CC3)nc2cc1OCCCSC` [compound 83], the IC50 falls from 575 nM to 223 nM (2.6-fold).

Compared with `COc1cc2nc(N3CCN(C)CC3)cc(NC3CCN(C)CC3)c2cc1OC` [compound 91, 6,7-Dimethoxy-2-(4-methylpiperazin-1-yl)-N-(1-methylpiperidin-4-yl)quinolin-4-amine], `COc1cc2nc(N3CCN(C)CC3)nc(NC3CCN(C(C)C)CC3)c2cc1OC` [compound 52] is 4.1-fold higher in IC50: 30 nM for the first, 123 nM for the second.

First: COc1cc2nc(N3CCCN(C)CC3)nc(NC3CCN(C(C)C)CC3)c2cc1OC [compound 51]
Second: COc1cc2nc(N3CCCCC3)nc(NC3CCN(C(C)C)CC3)c2cc1OC [compound 54]
The IC50 of the first is 5.8-fold lower: 55 nM for the first, 319 nM for the second.

Going from `COc1cc2nc(N3CCN(c4ccccn4)CC3)nc(NC3CCN(C(=O)c4ccccc4)CC3)c2cc1OC` [compound 35] to `COc1cc2nc(N3CCN(c4ccccn4)CC3)nc(NC3CCN(Cc4ccccc4)C3)c2cc1OC` (stereo not drawn) [compound 34], the IC50 falls from over 10000 nM to about 10000 nM.

Compared with `CCCCCCCCOc1cc2nc(N3CCCN(C)CC3)nc(NC3CCN(Cc4ccccc4)CC3)c2cc1OC` [compound 73], `CCCCCCOc1cc2nc(N3CCCN(C)CC3)nc(NC3CCN(Cc4ccccc4)CC3)c2cc1OC` [compound 74] is 5.4-fold lower in IC50: 211 nM for the first, 39 nM for the second. The second is the more potent here.

Compared with `COc1cc2nc(N3CCN(C)CC3)nc(NC3CCN(CC4CCCCC4)CC3)c2cc1OC` [compound 45], `COc1cc2nc(N3CCCN(C)CC3)nc(NC3CCN(CC4CCCCC4)CC3)c2cc1OC` [compound 44] is 2.5-fold lower in IC50: 25 nM for the first, 10 nM for the second.

`COc1cc2nc(N3CCN(C)CC3)nc(Nc3ccccc3)c2cc1OC` [compound 57] and `COc1cc2nc(N3CCCCC3)nc(Nc3ccccc3)c2cc1OC` [compound 58] cannot be ordered by IC50: over 10000 nM for the first, over 10000 nM for the second.

Compared with `COc1cc2nc(N3CCC(N(C)C)CC3)nc(NC3CCN(Cc4ccccc4)CC3)c2cc1OC` [compound 13], `COc1cc2nc(N3CCC(C)CC3)nc(NC3CCN(Cc4ccccc4)CC3)c2cc1OC` [compound 11] is 2.6-fold higher in IC50: 506 nM for the first, 1330 nM for the second. The first is the more potent here.

First: COc1cc2nc(N3CC(C)CC(C)C3)nc(NC3CCN(Cc4ccccc4)CC3)c2cc1OC (stereo not drawn) [compound 14]
Second: COc1cc2nc(N3CCC(OC)CC3)nc(NC3CCN(Cc4ccccc4)CC3)c2cc1OC [compound 12]
The IC50 of the first is 17-fold higher: about 10000 nM for the first, 576 nM for the second.

Going from `COc1cc2nc(N3CCN(C)CC3)nc(NC3CCCCC3)c2cc1OC` [compound 55] to `COc1cc2nc(N3CCCN(C)CC3)nc(NC3CCN(C4CCCCC4)CC3)c2cc1OC` [compound 48], the IC50 falls from 6440 nM to 55 nM (120-fold).

`COc1cc2cc(N3CCC(OC)CC3)nc(NC3CCN(Cc4ccccc4)CC3)c2cc1OC` [compound 86, N-(1-Benzylpiperidin-4-yl)-6,7-dimethoxy-3-(4-methoxypiperidin-1-yl)isoquinolin-1-amine] and `COc1cc2cc(N3CCCCC3)nc(NC3CCN(Cc4ccccc4)CC3)c2cc1OC` [compound 87, N-(1-Benzylpiperidin-4-yl)-6,7-dimethoxy-3-(piperidin-1-yl)isoquinolin-1-amine] cannot be ordered by IC50: over 50000 nM for the first, over 25000 nM for the second.

`COc1cc2nc(N3CC(C)CC(C)C3)nc(Nc3ccccc3)c2cc1OC` (stereo not drawn) [compound 59] and `COc1cc2nc(N3CC(C)CC(C)C3)nc(NC3CCN(C(C)=O)CC3)c2cc1OC` (stereo not drawn) [compound 37] cannot be ordered by IC50: over 10000 nM for the first, over 1000 nM for the second.

First: COc1cc2c(NC3CCN(Cc4ccccc4)CC3)nc(N3CCCCC3)nc2cc1OCc1ccccc1 [compound 62]
Second: COc1cc2c(NC3CCN(Cc4ccccc4)CC3)nc(N3CCN(C)CC3)nc2cc1OCc1ccccc1 [compound 61]
The IC50 of the first is higher: over 50000 nM for the first, about 10000 nM for the second. The second is the more potent here.

`COc1cc2nc(N3CCN(C)CC3)nc(NC3CCN(Cc4ccc(F)cc4)CC3)c2cc1OC` [compound 21] and `COc1cc2nc(N3CCN(C)CC3)nc(NC3CCN(Cc4ccc(C)cc4)CC3)c2cc1OC` [compound 19] are within 1.5-fold of each other in IC50: 112 nM for the first, 78 nM for the second.

`COc1cc2nc(N3CCN(C)CC3)nc(NC3CCN(Cc4cccc(C)c4)CC3)c2cc1OC` [compound 18] and `COc1cc2nc(N3CCN(C)CC3)nc(NC3CCN(Cc4cccc(F)c4)CC3)c2cc1OC` [compound 22] are within 1.5-fold of each other in IC50: 116 nM for the first, 132 nM for the second.

`COc1cc2nc(N3CCCCC3)nc(NC3CCCN(Cc4ccccc4)C3)c2cc1OC` (stereo not drawn) [compound 31] and `COc1cc2nc(N3CCCCC3)nc(NC3CCN(Cc4ccccc4)C3)c2cc1OC` (stereo not drawn) [compound 33] are within 1.5-fold of each other in IC50: about 1000 nM for the first, 830 nM for the second.

Compared with `COc1cc2nc(N3CCCCC3)nc(NC3CCN(Cc4ccc(C)cc4)CC3)c2cc1OC` [compound 26], `COc1cc2nc(N3CCCCC3)nc(NC3CCN(Cc4ccc(F)cc4)CC3)c2cc1OC` [compound 28] is 1.8-fold higher in IC50: 690 nM for the first, 1210 nM for the second. The first is the more potent here.

Going from `COc1cc2nc(N3CCN(c4ccccn4)CC3)nc(NC3CCN(C)CC3)c2cc1OC` [compound 41] to `COc1cc2nc(N3CCN(C)CC3)nc(NC3CCN(Cc4ccccc4F)CC3)c2cc1OC` [compound 23], the IC50 falls from over 1000 nM to 116 nM.

First: CCCCOc1cc2nc(N3CCN(C)CC3)nc(NC3CCN(C(C)C)CC3)c2cc1OC [compound 80]
Second: COc1cc2c(NC3CCN(C(C)C)CC3)nc(N3CCN(C)CC3)nc2cc1OCCC(C)C [compound 82]
The IC50 of the first is 2.4-fold lower: 843 nM for the first, 2030 nM for the second. The first is the more potent here.

First: COc1cc2nc(N3CCCCC3)nc(NC3CCN(C(=O)c4ccccc4)CC3)c2cc1OC [compound 36]
Second: COc1cc2nc(N3CCCCCC3)nc(NC3CCN(Cc4ccccc4)CC3)c2cc1OC [compound 9]
The IC50 of the first is higher: over 10000 nM for the first, 332 nM for the second. The second is the more potent here.

First: COc1cc2nc(N3CCN(C)CC3)nc(NC3CCCN(Cc4ccccc4)C3)c2cc1OC (stereo not drawn) [compound 30]
Second: COc1cc2c(NC3CCN(Cc4ccccc4)CC3)nc(N3CCN(C)CC3)nc2cc1OCCC(C)C [compound 81]
The IC50 of the first is 5.3-fold lower: about 1000 nM for the first, 5340 nM for the second. The first is the more potent here.

First: COc1cc2nc(N3CCCCC3)nc(NC3CCN(Cc4ccccc4C)CC3)c2cc1OC [compound 27]
Second: COc1cccc(CN2CCC(Nc3nc(N4CCN(C)CC4)nc4cc(OC)c(OC)cc34)CC2)c1 [compound 24]
The IC50 of the first is 7.8-fold higher: about 1000 nM for the first, 128 nM for the second.

Going from `COc1cc2c(NC3CCN(C(C)C)CC3)nc(N3CCN(C)CC3)nc2cc1OCCCN1CCCCC1` [compound 68] to `CCCCOc1cc2nc(N3CCN(C)CC3)nc(NC3CCN(Cc4ccccc4)CC3)c2cc1OC` [compound 79], the IC50 rises from 4 nM to 683 nM (170-fold). The first is the more potent here.

Going from `CCCCCCOc1cc2nc(N3CCN(C)CC3)nc(NC3CCN(Cc4ccccc4)CC3)c2cc1OC` [compound 77] to `CCCCCCCCOc1cc2nc(N3CCN(C)CC3)nc(NC3CCN(Cc4ccccc4)CC3)c2cc1OC` [compound 76], the IC50 rises from 114 nM to 1020 nM (8.9-fold).

Compared with `COc1cc2c(NC3CCN(Cc4ccccc4)CC3)nc(N3CCN(C)CC3)nc2cc1OCCCN(C)C` [compound 70], `COc1cc2c(NC3CCN(Cc4ccccc4)CC3)nc(N3CCCN(C)CC3)nc2cc1OCCCN(C)C` [compound 69] is lower in IC50: 8 nM for the first, under 3 nM for the second.

Going from `CCCCCCOc1cc2nc(NCCCN(C)C)nc(NC3CCN(Cc4ccccc4)CC3)c2cc1OC` [compound 75] to `COc1cc2nc(N3CCC(c4ccccc4)CC3)nc(NC3CCN(Cc4ccccc4)CC3)c2cc1OC` [compound 16], the IC50 rises from 39 nM to over 10000 nM.
